Measured values as given in US6458817B1, “Substituted arylsulfides, arylsulfoxides and arylsulfones as beta-3 adrenergic receptor agonists” (Wyeth, priority 2000, dated 2002).

Legend:
[1] = biological target: T1, human β3 adrenergic receptor (Homo sapiens, UniProt P13945); test: cAMP accumulation (SPA) in CHO cells transfected with human β3 adrenergic receptor; assay type: cell-based; conditions: for EC50: CHO cells expressing human β3-AR, cAMP by SPA, 30 min incubation, 10^-9M to 10^-5M; for IA(β3): maximal response relative to isoproterenol at 10^-5M (IA=% activity compound/% activity isoproterenol)
T1 construct: Full length β3 AR clones (402 amino acids) containing the last 6 amino acids of hβ3—AR are prepared; expressed in transfected cells; host or cells: CHO cells
Experimental: The ability of compounds of this invention to treat or inhibit disorders related to insulin resistance or hyperglycemia was established with representative compounds of this invention in the following standard pharmacological test procedures, which measured the binding selectivity to the β1, β2, and β3 adrenergic receptors. Binding to the receptors was measured in Chinese Hamster ovary (CHO) cells that were transfected with adrenergic receptors. The following briefly summarizes the procedures used and results obtained.
Cloning of Human β3-AR Genomic DNA: cDNA was constructed by ligating four polymerase chain reaction (PCR) products using the following primers: an ATG-Narl fragment, sense primer 5′-[…]3′ and anti-sense primer 5′[…]3′; a Narl-Accl fragment, 5′[…]3′ as sense and 5′[…]3′ as anti-sense primer; an Accli-Styl fragment, sense primer 5′[…]3′ and anti-sense primer 5′[…]3′ and a Styl-TAG fragment, with sense primer 5′[…]3′ and anti-sense primer 5′[…]3′. The corresponding primer sequences are described in Mantzoros, C. S., et. al., Diabetes 45: 909-914 (1996). The four fragments are ligated into a pUC 18 plasmid (Gibco-BRL) and sequenced. Full length β3 AR clones (402 amino acids) containing the last 6 amino acids of hβ3—AR are prepared with the β3-βARpcDNA3 from ATTC.
Binding Procedure: Clones expressing receptor levels of 70 to 110 fmoles/mg protein were used in the test procedures. CHO cells were grown in 24-well tissue culture plates in Dulbecco's Modified Eagle Media with 10% fetal bovine serum, MEM non-essential amino acids, Penicillin-Streptompycin and Geneticin. On the day of test procedure, growth medium was replaced with preincubation media (Dulbecco's Modified Eagle Media and incubated for 30 minutes at 37° C. Preincubation medium was replaced with 0.2 ml treatment medium containing DMEM media containing 250 μM IBMX (isobutyl-1-methylxantine) plus 1 mM ascorbic acid with test compound dissolved in DMSO. Test compounds were tested over a concentration range of 10^−9M to 10^−5M for β3 cells and 10^−8 to 10^−4M for β1 and β2 transfected cells. Isoproterenol (10^−5M) was used as an internal standard for comparison of activity. Cells were incubated at 37° C. on a rocker for 30 min with the β3 cells and 15 min for β1 and β2 cells. Incubation was stopped with the addition of 0.2N HCl and neutralized with 2.5N NaOH. The plates, containing the cells and neutralized media, were stored at −20 degrees celsius until ready to test for cAMP using the SPA test kit (Amersham).
Data Analysis and Results: Data collected from the SPA test procedure were analyzed as per cent of the maximal isoproterenol response at 10^−5M. Activity curves were plotted using the SAS statistical and graphics software. EC50 values were generated for each compound and the maximal response (IA) developed for each compound is compared to the maximal response of isoproternol at 10^−5M from the following formula:
IA=% activity compound/% activity isoproterenol

T1 sequence (P13945 whole entry): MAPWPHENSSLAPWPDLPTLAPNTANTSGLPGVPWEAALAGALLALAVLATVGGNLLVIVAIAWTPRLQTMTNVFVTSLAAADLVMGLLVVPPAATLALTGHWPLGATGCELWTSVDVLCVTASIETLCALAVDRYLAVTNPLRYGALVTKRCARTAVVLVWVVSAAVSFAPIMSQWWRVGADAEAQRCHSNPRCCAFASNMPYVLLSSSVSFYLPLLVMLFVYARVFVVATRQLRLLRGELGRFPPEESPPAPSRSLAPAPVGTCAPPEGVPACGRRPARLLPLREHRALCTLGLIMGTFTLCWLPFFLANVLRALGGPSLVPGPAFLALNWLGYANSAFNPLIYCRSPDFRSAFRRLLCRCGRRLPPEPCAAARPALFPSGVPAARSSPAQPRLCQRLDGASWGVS

Row | Compound | EC50 [1] [nM] | IA(β3) [1] | melting point [°C]
1 | COc1ccc(-c2nc(CS(=O)(=O)c3ccc(CCNC[C@H](O)COc4ccc(O)cc4)cc3)no2)cc1 [Example 29, 4[((2S)-2-hydroxy-3-{[4-({[5-(4-methoxyphenyl)-1,2,4-oxadiazol-3-yl]methyl}sulfonyl)phenethyl]amino}propyl)oxy]phenol] | 33 | 1.1 | 
2 | CC(C)(C)c1nc(CSc2ccc(CCNC[C@H](O)COc3ccc(O)cc3)cc2)no1 [Example 32, (2S)-4-(3-{2-[4-(5-tert-Butyl-[1,2,4]oxadiazol-3-ylmethylsulfanyl) -phenyl]-ethylamino}-2-hydroxy-propoxy)-phenol] | 330 | 1.2 | 
3 | CC(C)(C)c1nc(CS(=O)(=O)c2ccc(CCNC[C@H](O)COc3ccc(O)cc3)cc2)no1 [Example 15, 4-[((2S)-3-{[4-({[5-(tert-butyl)-1,2,4-oxadiazol-3-yl]methyl}sulfonyl)phenethyl]amino}-2-hydroxypropyl)oxy]phenol] | 28 | 0.92 | 
4 | [O-][S+](Cc1noc(Cc2ccccc2)n1)c1ccc(CCNC[C@H](O)COc2ccc(O)cc2)cc1 (stereo partly drawn) [Example 24, 4-({(2S)-3-[(4-{[(5-benzyl-1,2,4-oxadiazol-3-yl)methyl]sulfinyl}phenethyl)amino]-2-hydroxypropyl}oxy)phenol] | 431 | 0.62 | 51 to 57
5 | COc1ccc(-c2nc(CS(=O)(=O)c3ccc(CCNC[C@H](O)c4ccc(O)c(NS(C)(=O)=O)c4)cc3)no2)cc1 [Example 27, N-[2-hydroxy-5-((1R)-1-hydroxy-2-{[4-({[5-(4-methoxyphenyl)-1,2,4-oxadiazol-3-yl]methyl}sulfonyl)phenethyl]amino}ethyl)phenyl]methanesulfonamide] | 25 | 1 | 
6 | COc1ccc(-c2nc(CS(=O)(=O)c3ccc(CCNC[C@H](O)COc4ccc(O)c(C)c4)cc3)no2)cc1 [Example 19, 4-[((2S)-2-hydroxy-3-{[4-({[5-(4-methoxyphenyl)-1,2,4-oxadiazol-3-yl]methyl}sulfonyl)phenethyl]amino}propyl)oxy]-2-methylphenol] | 68 | 0.95 | 
7 | Cc1ccc(-c2noc(CSc3ccc(CCNC[C@H](O)COc4cccc5[nH]nnc45)cc3)n2)cc1 [Example 33, (2S)-1-(1H-1,2,3-benzotriazol-4-yloxy)-3-{[4-({[3-(4-methylphenyl)-1,2,4-oxadiazol-5-yl]methyl}sulfanyl)phenethyl]amino}-2-propanol] | 789 | 0.44 | 110
8 | O=S(=O)(Cc1noc(-c2ccccc2)n1)c1ccc(CCNCC(O)c2ccc(OC(F)(F)F)cc2)cc1 (stereo not drawn) [Example 8, 2-[(4{[(5-phenyl-1,2,4-oxadiazol-3-yl)methyl]sulfonyl}phenethyl)amino]-1-[4-(trifluoromethoxy)phenyl]-1-ethanol] |  |  | 125 to 127
9 | Cc1noc(C)c1-c1nc(CS(=O)(=O)c2ccc(CCNC[C@H](O)COc3ccc(O)cc3)cc2)no1 [Example 12, 4-[((2S)-3-{[4-({[5-(3,5-dimethyl-4-isoxazolyl)-1,2,4-oxadiazol-3-yl]methyl}sulfonyl)phenethyl]amino}-2-hydroxypropyl)oxy]phenol] | 70 |  | 
